Series [1] has as its system diethylnitrosamine-induced hepatocarcinogenic rats. The experiment in a line: ALT and AST in plasma of DEN-induced HCC rats. Particulars: 15 days, mean ± SD, n = 6. It counts as in vivo, albino Wistar rats. On the procedure:
All animals were randomly divided into five groups of six animals each. Drugs were suspended in 0.25% CMC, subjected to 28 days’ treatment orally and divided as follows: Group I: 0.25% CMC (2 ml/kg), Group II: DEN (8 mg/kg, intraperitoneally), Group III: DEN+5-fluorouracil (5-FU, 10 mg/kg, intraperitoneally), Group IV: DEN+M1 (50 mg/kg, orally) and Group V: DEN+M1 (100 mg/kg, orally). The procedure to induce HCC was adopted from a paper by Song et al. where it is shown that DEN produces HCC at 8 mg/kg intraperitoneal injection for 28 days to albino Wistar rats. After initial 1 week of adaptive inhabitation, all rats of group II–V were administered with DEN (8 mg/kg, intraperitoneally) for 28 days. After 28 days, 5-FU and M1 were given for 15 days as mentioned above for group III–V. At the end of the experimental period, animals were sacrificed by cervical decapitation and livers were dissected out immediately, rinsed in ice cold saline and stored at -20°C for further studies. The serum was collected, processed and stored for further analysis.
Liver function biomarkers like aspartate aminotransferase (AST), alanine aminotransferase (ALT) were also measured in serum using commercially available kit from Ebra Diagonesis Pvt Ltd, Germany. The oxidative parameters like superoxide dismutase (SOD), thiobarbituric acid reactive substances (TBARS), protein carbonyl (PC), SOD [14], tissue catalase (CAT) and glutathione (GSH) levels were estimated in liver tissue in the similar experiment. The total protein content of each sample was measured using the Bradford reagent and bovine serum albumin was used as a standard. Conjugated bilirubin and biliverdin in liver were measured as per the following procedure stated earlier in the literature with slight modifications.

Series [2] can be described thus: Determination of M1 in rat plasma by HPLC (pharmacokinetics). It is filed as in vivo, albino Wistar rats. On the procedure: In a separate experiment, M1 was administered orally at 50 mg/kg bodyweight to albino Wistar rats (n = 3) and blood was collected from retro orbital plexus at 0.083, 0.25, 0.5, 1, 2, 4, 8, 12, 16, 24 and 36 h. After collection, blood was centrifuged at 10,000 rpm for 10 min, serum was separated and kept at -20°C for further HPLC determination.
A 1 mg/ml stock solution of M1 was prepared in methanol. 2, 5, 10, 25, 50, 100, 200, 250 and 500 ng/ml working solutions were prepared from the stock solution in methanol. A 100 μl of blank plasma and 100 μl working solutions were taken in separate tubes and vortexed for 30 min. After that, the tubes were centrifuged at 13,000 rpm for 5 min and supernatant was taken into another tube and dried at 40°C overnight. Later, the tubes were reconstituted with 50 μl of methanol, vortexed for 10 min and 20 μl was injected for HPLC analysis. The final concentration of working solutions were 1, 2.5, 5, 12.5, 25, 50, 100, 125 and 250 ng/ml, respectively. Quality control (QC) samples were also prepared at concentrations of 3.0, 25.0 and 200.0 ng/ml, representing low, medium and high QC samples (LQC, MQC and HQC), respectively. Triplicate calibrants and QC samples were prepared at each concentration.
For test samples, 100 μl of test plasma and 100 μl methanol were taken in a test tube and vortexed for 30 min. The other procedure was similar to previously described method.
For the determination of M1 in plasma samples, chromatographic separations were performed in a Waters 2489 HPLC (MA, USA) equipped with Spherowsorb C18, 5μ, 4.6 × 250 mm column. The flow rate was at 1.0 ml/min and the mobile phases consisted of solvent A (formic acid containing water, pH 3.4) and solvent B (methanol). The elution condition was methanol:formic acid (70:30) and the total run time was 8 min. The HPLC was run through Empower software version 2 and absorbance was measured at 230 nm wave length. The detector used for estimation was Waters 2489 UV-Vis detector. The final data was calculated using Winnonlin version 1.5.3 software.

The mark [3] stands for this setting: albino Wistar, rat, single oral administration of 50 mg/kg in rats, n = 3, plasma.

The source of these data is article PMC5583658, “6,7-dimethoxy-1,2,3,4-tetrahydro-isoquinoline-3-carboxylic acid attenuates heptatocellular carcinoma in rats with NMR-based metabolic perturbations” (Future Science OA, 2017).

In series [1] (DEN+M1 50 mg/kg orally), `COc1cc2c(cc1OC)CC(C(=O)O)NC2` (centres unmarked) [M1, 6,7-dimethoxy-1,2,3,4-tetrahydro-isoquinoline-3-carboxylic acid] displayed an ALT of 88.4 ± 3.18 U/L and an AST of 47.73 ± 1.76 U/L. For the same compound, in series [1] (DEN+M1 100 mg/kg orally), the ALT was determined as 58.04 ± 2.84 U/L and the AST is on record as 40.95 ± 1.35 U/L. In addition, the AUC(0-t) in series [2] (albino Wistar, rat, plasma, po, 50 mg/kg, single oral administration of 50 mg/kg in rats, n = 3, plasma, after 36 h) stood at 2070 ng·h/mL. In addition, in series [2] (setting [3]), the peak level (Cmax) was 178 ± 3.27 ng/mL, the Tmax worked out at 4 h and the half-life was 6.05 h. The MRT in series [2] (albino Wistar, rat, single oral administration of 50 mg/kg in rats, n = 3, plasma, read-out: MRT (mean retention time)) is 10.5 h. Besides, the “oral bioavailability (in words)” value in series [2] (oral 50 mg/kg, rats, inferred from Cmax) is on record as “good oral bioavailability”. Moreover, in series [2] (single oral administration of 50 mg/kg in rats, n = 3, plasma, after 36 h, 50 mg/kg), the AUC0-T was found to be 2056.05 ± 26.22 ng·h/mL.

A word on the AUC(0-t): it is the area under the concentration-time curve up to a stated or last time point. For orientation: Cmax means the highest concentration seen after dosing. Usually Tmax stands for the time at which the peak concentration occurs. By half-life is commonly meant the time in which the quantity being followed falls by half. A lower half-life goes with fast loss. Usually MRT stands for the average time that molecules of a dose stay in the body.
